# Tests used:
# A549 = assay: MTT cytotoxicity on various cancer cells (Table 1); type: cell-based, human; conditions: lung cancer cell line A549; MTT, 48 h
# Experimental: (§1) To evaluate anticancer activities of the produced peptides on various types of cancer cells, MTT analysis was performed. Human prostate cancer cell lines (LNCaP, PC3, and DU145), human breast cancer cell lines (MDA-MB-231 and MCF-7), lung cancer cell line (A549), and ovarian cancer cell line (SKOV3) were cultured in RPMI media supplemented with 1% penicillin/streptomycin and 1% fetal bovine serum (all from Life Technologies, Grand Island, NY). The cells were seeded in 96-well plates containing 100 μL of growth media for 24 h. The media were removed, and then 100 μL of the peptide (solvent DPBS) at each concentration was added to each well and incubated at 37° C. for 48 h. After incubation for 48 h, 100 μL of MTT reagent was added to each well. The cells were incubated at 37° C. for 4 h, and then the supernatant was removed. Formazan crystals were dissolved in 100 μL of DMSO with gentle stirring at 37° C. for 10 min. The absorbance per well was measured at 540 nm using a VERSA max microplate reader (Molecular Devices Corp.).
# DU145 = assay: MTT cytotoxicity on various cancer cells (Table 1); type: cell-based, human; conditions: prostate cancer cell line DU145; MTT, 48 h
# Experimental: as §1
# PC3 = assay: MTT cytotoxicity on various cancer cells (Table 1); type: cell-based, human; conditions: prostate cancer cell line PC3; MTT, 48 h
# Experimental: as §1
# SKOV3 = assay: MTT cytotoxicity on various cancer cells (Table 1); type: cell-based, human; conditions: ovarian cancer cell line SKOV3; MTT, 48 h
# Experimental: as §1
# [1] = system: AKT, ERK1/2, and mTOR pathways; assay: Western blot of hTERT-regulating signaling proteins in LNCaP (FIG. 13); type: cell-based, human; conditions: LNCaP cells
# Experimental: (§2) The cells and tumor tissues were homogenized using the PRO-PREP™ extraction solution (iNtRON Biotechnology, Seongnam, Korea). After incubation, the homogenate was centrifuged at 16,000×g for 20 min at 4° C., and the supernatant was collected for western blot analysis. Subsequently, an equivalent quantity of protein was separated using sodium dodecyl sulfate polyacrylamide gels and transferred onto a polyvinylidene difluoride (PVDF) membrane. The PVDF membranes were incubated with the primary antibodies overnight at 4° C., washed with tris-buffered saline, and then incubated with HRP-conjugated anti-mouse or anti-rabbit antibodies. The bands were visualized using a ChemiDoc imaging system (Bio-Rad, Hercules, CA, USA). The band intensities were determined using an Image J software.
# Furthermore, a western blot analysis assessed the expression levels of signaling pathway proteins that regulate hTERT in LNCaP cells treated with HS1002. […] In addition, the expression of AKT, ERK1/2, and mTOR was unchanged in both the control and HS1002 groups (FIG. 13).
# [2] = system: c-Myc, AKT, ERK1/2 in LNCaP tumor xenografts; assay: Western blot of c-Myc and signaling proteins in LNCaP-xenografted tumors (FIG. 14); type: in vivo, mouse; conditions: LNCaP xenograft; HS1002 1 mg/kg/day, LA 0.1 mg/kg/day s.c.
# Experimental: as §2
# All mice were purchased from Central Lab Animal Inc. ([…]). They were raised in a 12 h environmental light/dark cycle with controlled temperature (22±2° C.) conditions. The experimental protocol was approved by the Sungkyunkwan University Institutional Animal Care and Use Committee (SKKUIACUC2021-06-27-1, SKKUIACUC2023-01-07-1). For the establishment of tumors, LNCaP (1×10^7), MC38 (2×10^5), and 4T1 (1×10^6) suspended in serum-free media containing 50% Matrigel was subcutaneously administered in the right flank of mice, respectively. The tumor volumes (V) were calculated using a caliper and the standard equation: V (mm^3)=0.52 (ab^2) (a=length, b=width). Once the tumor reached 100-200 mm^3, the mice were randomly divided into different groups and subcutaneously injected with a vehicle or each peptide every day.
# To investigate the anticancer effect of HS1002, the present inventors observed the volume of cancer cells after transplanting the cancer cells into experimental animals. Specifically, mice (4-week-old male BALB/c nude mice; Central Lab. Animal Inc., Seoul, Korea) were prepared, and tumor cells (1×10^7 LNCaP cells) suspended in 1 mL of a serum-free medium containing 50% Matrigel were percutaneously injected into the upper flank of each nude mouse. When the tumor cell volume reached about 200 mm^3, the mice were randomly assigned to a vehicle control group, a leuprolide acetate-treated group, and test groups (GV1001-treated group and HS1002-treated group), respectively. Leuprolide acetate (0.1 mg/kg/day) and GV1001 and HS1002 (1 mg/kg/day) were injected subcutaneously for 13 days.
# [3] = system: tumor-infiltrating CD45+ and CD8+ cells in MC38 tumor; assay: Flow cytometry of tumor infiltrating leukocytes in MC38 tumors (FIG. 20); type: in vivo, mouse; conditions: MC38 tumor tissue, vs vehicle
# Description: A mouse tumor dissociation kit (Cat. 130-096-730, Miltenyi Biotec, Bergisch Gladbach, Germany) was used for tumor digestion according to the manufacturer's protocol. Briefly, the tumor was cut into small fragments with RPMI 1640 containing enzymes D, R, and A. After filtration through a 70 μm cell strainer, red blood cells were removed using RBC lysis buffer (Cat. 420301, BioLegend, San Diego, CA, USA). The acquired single-cell suspension was used for further analysis. For analysis of intracellular cytokines, the cell suspension was incubated in the presence of a cell stimulation cocktail (with a protein transport inhibitor) (Cat. 00-4975-93, Invitrogen, eBioscience) for 5 h and subjected to fixation and permeabilization using an intracellular fixation and permeabilization buffer set (Cat. 88-8824-00, Thermo Fisher) according to the manufacturer's protocol. Following the staining process, samples were analyzed with Novocyte (ACEA Biosciences, San Diego, CA, USA).
# CTLs are the key mediators of granzyme- and perforin-mediated cancer cell destruction during cancer immunosurveillance and immunotherapy. […] To investigate the effect of HS1002 on tumor-infiltrating CD8^+ T cells in MC38 tumor tissue, flow cytometric analysis was used. Flow cytometric analysis confirmed that HS1002 elevated the total number of tumor-infiltrating CD45+ cells and the production of granzyme B and IFN-γ in CD8^+ cells and in MC38 tumor tissue (FIG. 20A). To assess the effect of HS1002 on immune response-related gene expression in a syngeneic mouse model, gene expression analysis was conducted by profiling the transcriptomes of the tumor. A total of 49,196 genes were analyzed in tumor tissues, and genes with a fold change exceeding 1.5 were included for further analysis with statistical significance at p<0.05.
smiles,measurement,setting,value
CCNC(=O)[C@@H]1CCCN1C(=O)[C@@H](NC(=O)[C@H](Cc1ccccc1)NC(=O)[C@H](CCCNC(=N)N)NC(=O)[C@H](CC(C)C)NC(=O)[C@H](CCCNC(=N)N)NC(=O)[C@H](Cc1ccc(O)cc1)NC(=O)[C@H](CO)NC(=O)[C@H](Cc1c[nH]c2ccccc12)NC(=O)[C@H](Cc1c[nH]cn1)NC(=O)[C@@H]1CCC(=O)N1)[C@@H](C)CC [HS1002],Cytotoxicity (IC50) A549,A549,7.94 ± 0.07 µg/mL
same,Cytotoxicity (IC50) DU145,DU145,5.23 ± 0.65 µg/mL
same,Cytotoxicity (IC50) PC3,PC3,7.56 ± 0.61 µg/mL
same,Cytotoxicity (IC50) SKOV3,SKOV3,4.91 ± 0.41 µg/mL
same,expression of p-AKT,[1],significantly downregulated
same,expression of p-ERK1/2,[1],significantly downregulated
same,expression of p-mTOR,[1],significantly downregulated
same,"expression of AKT, ERK1/2, and mTOR",[1]; total proteins,unchanged
same,expression of c-Myc in tumor tissue,[2],significantly downregulated
same,expression of p-AKT in tumor tissue,[2],significantly downregulated
same,expression of p-ERK1/2 in tumor tissue,[2],significantly downregulated
same,production of IFN-γ in CD8+ cells,[3],elevated
same,production of granzyme B in CD8+ cells,[3],elevated
same,total number of tumor-infiltrating CD45+ cells,[3],elevated

# From patent publication US20240247031A1, “COMPOSITION FOR TREATING CANCER CONTAINING TELOMERASE-TARGETING GNRH ANTAGONIST-DERIVED PEPTIDE HS1002” (Research & Business Foundation Sungkyunkwan University, priority 2023, published 2024)
